From US12527797B2, “Isochromene derivatives as phosphoinositide 3-kinases inhibitors” (CHIESI FARMACEUTICI S.P.A., priority 2019, dated 2026)
Where two headings read alike, the source gives them in different places.

Legend:
[1] = tested on: Ovalbumin (OVA) induced lung eosinophilia; experiment: Rat model of ovalbumin (OVA) induced lung eosinophilia (WET administration, saline suspension i.t.); format: in vivo, Brown Norway rats
[2] = tested on: PI3Kδ-AKT pathway endogenously expressed on THP-1 cells; experiment: PI3Kδ enzyme inhibitory activity in the THP-1 assay (M-CSF stimulated pAKT, HTRF); format: cell-based; settings: for IC50: Homo sapiens, THP-1 cells, M-CSF 2.5 ng/mL, pAKT Ser473, read-out: THP-1 IC50 nM Cellular; for Delta cell drop-off (Cellular/enzymatic activity = THP-1 IC50 nM/Delta Ki nM): ratio THP-1 IC50 / Delta Ki
PI3Kα = biological target: T1, PI3Kα (Homo sapiens, UniProt P42336); settings: cell free assay; reproduced from WO2015091685; read-out: PI3K alpha inhibition; cited from earlier work
T1 construct: purchased Millipore Ltd (Billerica, MA)

PI3Kγ = biological target: T2, PI3Kγ (Homo sapiens, UniProt P48736); settings: cell free assay; reproduced from WO2015091685; read-out: PI3K gamma inhibition; cited from earlier work
T2 construct: purchased Millipore Ltd (Billerica, MA)

PI3Kβ = biological target: T3, PI3Kβ (Homo sapiens, UniProt P42338); settings: cell free assay; reproduced from WO2015091685; read-out: PI3K beta inhibition; cited from earlier work
T3 construct: purchased Millipore Ltd (Billerica, MA)

PI3Kδ [3] = biological target: T4, PI3Kδ (Homo sapiens, UniProt O00329); settings: cell free assay; reproduced from WO2015091685; read-out: PI3K delta inhibition; cited from earlier work
T4 construct: purchased Millipore Ltd (Billerica, MA)

PI3Kδ [4] = biological target: T4, PI3Kδ; experiment: PI3K enzyme inhibitory activity in the cell free assay (ADP-Glo Kinase Assay); format: biochemical; settings: cell free enzymatic assay; for IC50: ATP 80 μM, read-out: Enzymatic Delta IC50; for Ki: read-out: Enzymatic Delta Ki
Lung retention = settings: reason why not tested in OVA model
[5] = administered 12 h before OVA challenge, 0.1 μmol/kg (ED80) for compounds of the invention

T4 sequence (O00329 whole entry): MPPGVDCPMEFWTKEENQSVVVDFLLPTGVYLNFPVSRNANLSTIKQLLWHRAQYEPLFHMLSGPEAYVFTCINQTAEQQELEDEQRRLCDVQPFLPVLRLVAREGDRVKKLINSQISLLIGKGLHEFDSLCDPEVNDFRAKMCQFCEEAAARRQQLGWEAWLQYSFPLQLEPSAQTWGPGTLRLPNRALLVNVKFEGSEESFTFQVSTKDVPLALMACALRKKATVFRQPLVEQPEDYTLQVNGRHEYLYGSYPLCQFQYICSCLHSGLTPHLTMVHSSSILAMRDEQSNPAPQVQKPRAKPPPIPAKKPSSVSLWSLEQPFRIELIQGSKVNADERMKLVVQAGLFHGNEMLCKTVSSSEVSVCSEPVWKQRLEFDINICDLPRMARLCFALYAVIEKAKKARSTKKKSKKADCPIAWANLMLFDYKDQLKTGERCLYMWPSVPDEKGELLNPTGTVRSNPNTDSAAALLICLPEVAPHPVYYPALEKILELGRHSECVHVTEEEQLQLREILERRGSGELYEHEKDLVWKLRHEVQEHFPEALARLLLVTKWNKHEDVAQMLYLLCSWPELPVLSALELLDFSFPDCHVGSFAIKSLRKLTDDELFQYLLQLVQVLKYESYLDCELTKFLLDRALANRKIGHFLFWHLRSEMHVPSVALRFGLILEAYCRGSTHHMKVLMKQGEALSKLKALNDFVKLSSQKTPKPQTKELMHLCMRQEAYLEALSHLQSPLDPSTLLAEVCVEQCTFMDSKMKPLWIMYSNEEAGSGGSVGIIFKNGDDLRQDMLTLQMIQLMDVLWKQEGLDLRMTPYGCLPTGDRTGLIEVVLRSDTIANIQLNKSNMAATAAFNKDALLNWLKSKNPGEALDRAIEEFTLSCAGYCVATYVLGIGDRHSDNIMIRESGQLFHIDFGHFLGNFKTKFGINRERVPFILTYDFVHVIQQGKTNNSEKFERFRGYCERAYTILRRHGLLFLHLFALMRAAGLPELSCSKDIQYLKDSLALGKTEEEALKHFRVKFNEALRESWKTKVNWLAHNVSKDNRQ
T4 sequence (P27986 whole entry partner): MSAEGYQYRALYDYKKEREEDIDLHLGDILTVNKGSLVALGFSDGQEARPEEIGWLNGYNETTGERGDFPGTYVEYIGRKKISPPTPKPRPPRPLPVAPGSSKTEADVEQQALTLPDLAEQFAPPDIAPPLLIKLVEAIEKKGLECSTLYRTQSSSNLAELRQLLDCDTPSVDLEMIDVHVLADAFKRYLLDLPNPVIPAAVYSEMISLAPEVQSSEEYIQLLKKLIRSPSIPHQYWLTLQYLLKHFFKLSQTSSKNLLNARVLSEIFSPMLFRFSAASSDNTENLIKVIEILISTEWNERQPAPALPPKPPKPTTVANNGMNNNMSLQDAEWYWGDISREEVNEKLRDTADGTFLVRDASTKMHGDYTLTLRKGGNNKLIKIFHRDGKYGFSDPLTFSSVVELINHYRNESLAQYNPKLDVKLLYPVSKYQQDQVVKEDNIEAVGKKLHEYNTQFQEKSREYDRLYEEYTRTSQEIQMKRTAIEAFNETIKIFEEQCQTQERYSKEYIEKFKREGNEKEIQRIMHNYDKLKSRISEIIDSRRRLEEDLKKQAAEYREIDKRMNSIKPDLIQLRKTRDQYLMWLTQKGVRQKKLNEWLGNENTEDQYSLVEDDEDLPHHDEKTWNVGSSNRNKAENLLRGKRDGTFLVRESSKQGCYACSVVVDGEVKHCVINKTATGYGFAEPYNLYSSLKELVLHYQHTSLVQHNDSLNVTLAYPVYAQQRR
T2 sequence (P48736 whole entry): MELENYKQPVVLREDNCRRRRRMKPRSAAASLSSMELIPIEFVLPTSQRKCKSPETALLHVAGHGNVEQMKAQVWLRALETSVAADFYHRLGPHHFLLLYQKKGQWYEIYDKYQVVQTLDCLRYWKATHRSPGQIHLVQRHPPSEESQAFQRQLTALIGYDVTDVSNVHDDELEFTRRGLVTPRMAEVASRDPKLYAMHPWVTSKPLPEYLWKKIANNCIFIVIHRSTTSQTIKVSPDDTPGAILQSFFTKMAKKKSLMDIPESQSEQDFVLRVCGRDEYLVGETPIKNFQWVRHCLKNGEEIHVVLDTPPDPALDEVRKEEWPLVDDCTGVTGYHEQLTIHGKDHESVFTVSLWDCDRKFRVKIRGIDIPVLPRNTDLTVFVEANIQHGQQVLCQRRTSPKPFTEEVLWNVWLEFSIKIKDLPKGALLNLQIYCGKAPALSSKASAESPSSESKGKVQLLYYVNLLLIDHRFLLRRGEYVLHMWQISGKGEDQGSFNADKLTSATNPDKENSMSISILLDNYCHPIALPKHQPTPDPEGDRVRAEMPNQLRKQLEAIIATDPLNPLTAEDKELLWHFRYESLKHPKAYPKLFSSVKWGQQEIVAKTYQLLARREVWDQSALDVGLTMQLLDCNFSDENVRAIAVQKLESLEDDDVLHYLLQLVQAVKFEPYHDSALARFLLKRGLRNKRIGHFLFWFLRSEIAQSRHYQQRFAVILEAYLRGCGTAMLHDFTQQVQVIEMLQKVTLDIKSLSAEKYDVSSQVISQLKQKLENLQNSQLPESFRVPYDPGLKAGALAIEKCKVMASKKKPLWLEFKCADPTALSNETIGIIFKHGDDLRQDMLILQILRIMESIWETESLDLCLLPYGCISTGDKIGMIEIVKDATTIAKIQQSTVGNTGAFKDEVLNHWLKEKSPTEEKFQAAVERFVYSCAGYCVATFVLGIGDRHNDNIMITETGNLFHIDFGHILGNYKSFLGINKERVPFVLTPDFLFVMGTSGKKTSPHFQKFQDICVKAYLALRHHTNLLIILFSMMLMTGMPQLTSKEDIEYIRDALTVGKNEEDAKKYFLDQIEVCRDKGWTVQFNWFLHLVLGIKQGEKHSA
T3 sequence (P42338 whole entry): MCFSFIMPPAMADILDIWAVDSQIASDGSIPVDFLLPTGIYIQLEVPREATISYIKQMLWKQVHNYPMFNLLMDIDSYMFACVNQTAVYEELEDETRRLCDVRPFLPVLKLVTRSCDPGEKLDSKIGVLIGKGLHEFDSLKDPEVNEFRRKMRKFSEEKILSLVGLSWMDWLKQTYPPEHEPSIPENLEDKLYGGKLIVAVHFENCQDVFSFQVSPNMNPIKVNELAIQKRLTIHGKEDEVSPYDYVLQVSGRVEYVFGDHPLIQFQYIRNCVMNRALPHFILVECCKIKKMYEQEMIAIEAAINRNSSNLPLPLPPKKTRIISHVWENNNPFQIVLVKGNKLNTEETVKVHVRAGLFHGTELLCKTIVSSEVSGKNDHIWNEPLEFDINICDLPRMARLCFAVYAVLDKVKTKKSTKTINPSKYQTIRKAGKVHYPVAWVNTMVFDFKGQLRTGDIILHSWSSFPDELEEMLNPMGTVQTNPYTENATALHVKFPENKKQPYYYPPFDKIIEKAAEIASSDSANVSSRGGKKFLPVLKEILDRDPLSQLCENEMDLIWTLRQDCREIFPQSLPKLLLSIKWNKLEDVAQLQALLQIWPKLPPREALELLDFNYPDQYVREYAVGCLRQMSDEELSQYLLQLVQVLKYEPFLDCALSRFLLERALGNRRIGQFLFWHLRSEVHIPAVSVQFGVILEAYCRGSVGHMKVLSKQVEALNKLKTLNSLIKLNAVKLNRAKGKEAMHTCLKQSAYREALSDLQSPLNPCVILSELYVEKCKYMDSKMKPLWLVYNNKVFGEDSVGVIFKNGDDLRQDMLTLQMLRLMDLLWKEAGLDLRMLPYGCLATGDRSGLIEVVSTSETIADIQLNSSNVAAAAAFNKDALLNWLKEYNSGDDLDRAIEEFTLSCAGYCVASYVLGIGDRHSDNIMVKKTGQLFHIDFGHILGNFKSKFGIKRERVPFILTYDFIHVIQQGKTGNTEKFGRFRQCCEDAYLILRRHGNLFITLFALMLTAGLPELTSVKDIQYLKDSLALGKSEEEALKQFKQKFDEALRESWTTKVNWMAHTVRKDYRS
T1 sequence (P42336 whole entry): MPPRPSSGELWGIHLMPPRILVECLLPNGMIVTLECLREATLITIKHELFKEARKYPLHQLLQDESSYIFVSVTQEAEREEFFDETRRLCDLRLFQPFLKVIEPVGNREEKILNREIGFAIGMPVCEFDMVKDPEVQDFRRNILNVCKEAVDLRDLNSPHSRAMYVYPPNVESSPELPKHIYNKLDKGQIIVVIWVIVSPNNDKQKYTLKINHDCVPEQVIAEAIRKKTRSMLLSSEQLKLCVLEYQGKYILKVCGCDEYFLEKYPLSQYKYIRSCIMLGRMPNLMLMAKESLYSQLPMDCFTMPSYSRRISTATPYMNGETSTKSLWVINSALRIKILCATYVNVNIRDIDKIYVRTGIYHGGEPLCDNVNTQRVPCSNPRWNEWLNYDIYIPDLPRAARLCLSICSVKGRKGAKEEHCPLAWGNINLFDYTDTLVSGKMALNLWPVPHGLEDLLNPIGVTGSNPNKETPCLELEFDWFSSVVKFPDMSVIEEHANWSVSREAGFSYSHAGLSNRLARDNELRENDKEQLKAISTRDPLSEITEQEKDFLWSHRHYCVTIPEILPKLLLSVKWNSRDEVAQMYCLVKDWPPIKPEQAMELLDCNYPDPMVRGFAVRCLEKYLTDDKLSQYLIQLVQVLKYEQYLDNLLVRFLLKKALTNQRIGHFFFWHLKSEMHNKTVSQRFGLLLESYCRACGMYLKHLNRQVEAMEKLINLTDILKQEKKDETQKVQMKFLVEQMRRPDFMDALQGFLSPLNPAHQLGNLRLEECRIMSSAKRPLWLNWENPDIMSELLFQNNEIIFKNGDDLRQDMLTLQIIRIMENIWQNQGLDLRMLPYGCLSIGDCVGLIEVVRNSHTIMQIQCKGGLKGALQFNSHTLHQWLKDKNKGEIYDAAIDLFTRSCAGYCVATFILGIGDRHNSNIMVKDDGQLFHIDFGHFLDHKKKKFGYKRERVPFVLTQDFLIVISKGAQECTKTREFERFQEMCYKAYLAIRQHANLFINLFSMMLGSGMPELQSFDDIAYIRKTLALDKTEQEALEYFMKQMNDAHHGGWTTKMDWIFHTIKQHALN

SMILES | IC50 [2] [nM] | Delta cell drop-off (Cellular/enzymatic activity = THP-1 IC50 nM/Delta Ki nM) [2] | IC50 (PI3Kδ [4]) [nM] | Ki (PI3Kδ [4]) [nM] | other results
CC(c1oc(=O)c2ccccc2c1-c1cccc(CN2CCN(C)CC2)c1)n1nc(-c2cc(O)cc(F)c2)c2c(N)ncnc21 (racemic) [Example 142, 3-(1-(4-amino-3-(3-fluoro-5-hydroxyphenyl)-1H-pyrazolo[3,4-d]pyrimidin-1-yl)ethyl)-4-(3-((4-methylpiperazin-1-yl)methyl)phenyl)-1H-isochromen-1-one] | – | – | – | – | IC50 (PI3Kα): > 1000 nM; IC50 (PI3Kγ): > 1000 nM; IC50 (PI3Kβ): > 1000 nM; IC50 (PI3Kδ [3]): < 10 nM
CC(c1oc(=O)c2ccccc2c1-c1cc(F)cc(CN2CCN(C)CC2)c1)n1nc(-c2cncc(O)c2)c2c(N)ncnc21 (stereo not drawn) [Example 6, 3-(1-(4-Amino-3-(5-hydroxypyridin-3-yl)-1H-pyrazolo[3,4-d]pyrimidin-1-yl)ethyl)-4-(3-fluoro-5-((4-methylpiperazin-1-yl)methyl)phenyl)-1H-isochromen-1-one] | 3 | 7.5 | 0.8 | 0.4 | –
CC(c1cccc(-c2c(C(C)n3nc(-c4cncc(O)c4)c4c(N)ncnc43)oc(=O)c3ccccc23)c1)N(C)C (stereo not drawn) [Example 7, 3-(1-(4-Amino-3-(5-hydroxypyridin-3-yl)-1H-pyrazolo[3,4-d]pyrimidin-1-yl)ethyl)-4-(3-(1-(dimethylamino)ethyl)phenyl)-1H-isochromen-1-one] | 3.9 | 4.9 | 1.6 | 0.8 | –
CC(c1oc(=O)c2ccccc2c1-c1cccc(CN(C)C)c1)n1nc(-c2cc(O)cc(F)c2)c2c(N)ncnc21 (single isomer, unassigned) [Comparative example 3, reference compound] | 1.5 | – | – | – | % of inhibition (eosinophil recruitment in BALF) ([1]; administered 2 h before OVA challenge, ns = non-significant): 34% ns***
CC(c1oc(=O)c2ccccc2c1-c1cccc(CN2CCN(C)CC2)c1)n1nc(-c2cc(O)cc(F)c2)c2c(N)ncnc21 (single isomer, unassigned) [Comparative example 1, 3-(1-(4-amino-3-(3-fluoro-5-hydroxyphenyl)-1H-pyrazolo[3,4-d]pyrimidin-1-yl)ethyl)-4-(3-((4-methylpiperazin-1-yl)methyl)phenyl)-1H-isochromen-1-one, reference compound] | 1.8 | 1.6 | 2.2 | 1.1 | % of inhibition (eosinophil recruitment in BALF) [1, 5]: 0% (Not durable)
CC(c1oc(=O)c2ccccc2c1-c1ccc(F)c(CN2CCN(C)CC2)c1)n1nc(-c2cncc(O)c2)c2c(N)ncnc21 (stereo not drawn) [Example 5, 3-{1-[4-Amino-3-(5-hydroxypyridin-3-yl)-1H-pyrazolo[3,4-d]pyrimidin-1-yl]ethyl}-4-{4-fluoro-3-[(4-methylpiperazin-1-yl)methyl]phenyl}-1H-isochromen-1-one] | 1.8 | 3.6 | 1 | 0.5 | –
CC(c1oc(=O)c2ccccc2c1-c1ccc(Cl)c(CN(C)C)c1)n1nc(-c2cncc(O)c2)c2c(N)ncnc21 (stereo not drawn) [Example 3, 3-{1-[4-Amino-3-(5-hydroxypyridin-3-yl)-1H-pyrazolo[3,4-d]pyrimidin-1-yl]ethyl}-4-{4-chloro-3-[(dimethylamino)methyl]phenyl}-1H-isochromen-1-one] | 3.9 | 9.7 | 0.7 | 0.4 | –
CC(c1oc(=O)c2ccccc2c1-c1ccccc1)n1nc(-c2cncc(O)c2)c2c(N)ncnc21 (single isomer, unassigned) [Comparative example 2, reference compound] | 1.6 | – | – | – | lung retention (Lung retention): Compound not even tested in OVA model for Insufficient lung retention****

Second part, led by results:

IC50 [2] [nM] | Delta cell drop-off (Cellular/enzymatic activity = THP-1 IC50 nM/Delta Ki nM) [2] | IC50 (PI3Kδ [4]) [nM] | Ki (PI3Kδ [4]) [nM] | SMILES | other results
2.8 | 3.1 | – | – | CC(c1oc(=O)c2ccccc2c1-c1cccc(CN2CCN(C)CC2)c1)n1nc(-c2cncc(O)c2)c2c(N)ncnc21 (single isomer, unassigned) [Example 1a, 3-{1-[4-Amino-3-(5-hydroxypyridin-3-yl)-1H-pyrazolo[3,4-d]pyrimidin-1-yl]ethyl}-4-{3-[(4-methylpiperazin-1-yl)methyl]phenyl}-1H-isochromen-1-one] | % of inhibition (eosinophil recruitment in BALF) [1, 5]: 55%
0.6 | 1.2 | – | – | CC(c1oc(=O)c2ccccc2c1-c1cccc(CN(C)C)c1)n1nc(-c2cncc(O)c2)c2c(N)ncnc21 (single isomer, unassigned) [Example 2a, 3-(1-(4-amino-3-(5-hydroxypyridin-3-yl)-1H-pyrazolo[3,4-d]pyrimidin-1-yl)ethyl)-4-(3-((dimethylamino)methyl)phenyl)-1H-isochromen-1-one] | % of inhibition (eosinophil recruitment in BALF) [1, 5]: 57%
1 | 10 | 0.3 | 0.1 | CC(c1oc(=O)c2ccccc2c1-c1cccc([C@H]2CCCN2C)c1)n1nc(-c2cncc(O)c2)c2c(N)ncnc21 (single isomer, unassigned) [Example 4a] | –
